How the values were obtained:
[1] = Antiproliferative activity against mouse MC3T3-E1 cells; assay type: toxicity, cell-based
A549 [2] = assay: Antiproliferative activity against human A549 cells; assay type: functional, cell-based
A549 [3] = assay: Antiproliferative activity against human A549 cells measured after 48 hrs by MTT assay; assay type: functional, cell-based; settings: A549, 48 h
HCT-116 [4] = assay: Antiproliferative activity against human HCT-116 cells measured after 48 hrs by MTT assay; assay type: functional, cell-based; settings: HCT-116, 48 h
MDA-MB-231 [5] = assay: Antiproliferative activity against human MDA-MB-231 cells measured after 48 hrs by MTT assay; assay type: functional, cell-based; settings: MDA-MB-231, 48 h
MCF7 = assay: Antiproliferative activity against human MCF7 cells assessed as inhibition of cell growth; assay type: functional, cell-based
A549 [6] = assay: Antiproliferative activity against human A549 cells assessed as inhibition of cell growth; assay type: functional, cell-based
HeLa = assay: Antiproliferative activity against human HeLa cells assessed as inhibition of cell growth; assay type: functional, cell-based
A549 [7] = assay: Antiproliferative activity against human A549 cells measured after 48 hrs; assay type: functional, cell-based; settings: A549, 48 h
HCT-116 [8] = assay: Antiproliferative activity against human HCT-116 cells measured after 48 hrs; assay type: functional, cell-based; settings: HCT-116, 48 h
MDA-MB-231 [9] = assay: Antiproliferative activity against human MDA-MB-231 cells measured after 48 hrs; assay type: functional, cell-based; settings: MDA-MB-231, 48 h

O=C1c2ccccc2-n2c1nc1cc(Cl)ccc1c2=O
IC50 [1]: > 100 µM
IC50 (A549 [2]): > 100 µM

CCN(CC)c1cccc2c1C(=O)c1nc3ccccc3c(=O)n1-2
IC50 (A549 [3]): > 100 µM
IC50 (HCT-116 [4]): 1.62 µM
IC50 (MDA-MB-231 [5]): 48.3 µM

CN1CCN(c2cccc3c2C(=O)c2nc4ccccc4c(=O)n2-3)CC1
IC50 (A549 [3]): > 100 µM
IC50 (HCT-116 [4]): 45.6 µM
IC50 (MDA-MB-231 [5]): > 100 µM

O=C1C2C=CC=CC2=NC2/C(=N\Nc3nc(-c4ccc(O)cc4)cs3)c3ccccc3N12 (configuration not stated)
IC50 (MCF7): 31.6 µM
IC50 (A549 [6]): 28.8 µM
IC50 (HeLa): 7.22 µM

O=C1c2ccccc2-n2c1nc1ccc(F)c(Cl)c1c2=O
IC50 [1]: > 100 µM
IC50 (A549 [2]): > 100 µM

COc1ccc(-c2cs/c(=N/N=C3/c4ccccc4-n4c3nc3ccccc3c4=O)n2-c2ccccc2)cc1
IC50 (MCF7): 52.3 µM
IC50 (A549 [6]): 63 µM
IC50 (HeLa): 40.2 µM

O=C1c2c(ccc(Cl)c2N2CCN(c3ccccn3)CC2)-n2c1nc1ccccc1c2=O
IC50 (A549 [3]): > 100 µM
IC50 (HCT-116 [4]): > 100 µM
IC50 (MDA-MB-231 [5]): > 100 µM

CN(C)c1c(F)ccc2c1C(=O)c1nc3ccccc3c(=O)n1-2
IC50 (A549 [3]): > 100 µM
IC50 (HCT-116 [4]): > 100 µM
IC50 (MDA-MB-231 [5]): 89.7 µM

O=C1c2ccccc2-n2c1nc1ccc(Cl)c(Cl)c1c2=O
IC50 [1]: > 100 µM
IC50 (A549 [2]): > 100 µM

CN(C)c1cccc2c1C(=O)c1nc3ccccc3c(=O)n1-2
IC50 (A549 [7]): > 100 µM
IC50 (HCT-116 [8]): > 100 µM
IC50 (MDA-MB-231 [9]): > 100 µM

CN(C)c1c(Cl)ccc2c1C(=O)c1nc3ccccc3c(=O)n1-2
IC50 (A549 [3]): 18.6 µM
IC50 (HCT-116 [4]): 25.7 µM
IC50 (MDA-MB-231 [5]): 14.7 µM

O=C1c2c(ccc(Cl)c2N2CCN(CCO)CC2)-n2c1nc1ccccc1c2=O
IC50 (A549 [3]): 22.8 µM
IC50 (HCT-116 [4]): > 100 µM
IC50 (MDA-MB-231 [5]): 32.8 µM

COc1ccc(-c2csc(N/N=C3/c4ccccc4N4C(=O)C5C=CC=CC5=NC34)n2)cc1 (configuration not stated)
IC50 (MCF7): 45.9 µM
IC50 (A549 [6]): 52 µM
IC50 (HeLa): 65.5 µM

O=C1c2c(ccc(F)c2Cl)-n2c1nc1cc(Cl)ccc1c2=O
IC50 [1]: 82 µM
IC50 (A549 [2]): 1.03 µM

O=C1c2c(N3CCN(CCO)CC3)cccc2-n2c1nc1ccccc1c2=O
IC50 (A549 [3]): > 100 µM
IC50 (HCT-116 [4]): > 100 µM
IC50 (MDA-MB-231 [5]): 34.2 µM

CN1CCN(c2c(Cl)ccc3c2C(=O)c2nc4ccccc4c(=O)n2-3)CC1
IC50 (A549 [3]): > 100 µM
IC50 (HCT-116 [4]): > 100 µM
IC50 (MDA-MB-231 [5]): > 100 µM

N#Cc1ccc(-c2cs/c(=N/N=C3/c4ccccc4-n4c3nc3ccccc3c4=O)n2-c2ccccc2)cc1
IC50 (MCF7): 44.4 µM
IC50 (A549 [6]): 28.8 µM
IC50 (HeLa): 43.8 µM

O=c1c2ccccc2nc2n1-c1ccccc1/C2=N/N=c1/scc(-c2ccc(Cl)cc2)n1-c1ccccc1
IC50 (MCF7): 46.1 µM
IC50 (A549 [6]): 65.5 µM
IC50 (HeLa): 75.2 µM

CCN(CC)c1c(F)ccc2c1C(=O)c1nc3ccccc3c(=O)n1-2
IC50 (A549 [3]): 1.2 µM
IC50 (HCT-116 [4]): 2.01 µM
IC50 (MDA-MB-231 [5]): 0.8 µM

Cc1ccc2c(c1N1CCN(c3ccccn3)CC1)C(=O)c1nc3ccccc3c(=O)n1-2
IC50 (A549 [3]): > 100 µM
IC50 (HCT-116 [4]): > 100 µM
IC50 (MDA-MB-231 [5]): > 100 µM

O=C1c2cc(Cl)c(N3CCCCC3)cc2-n2c1nc1ccccc1c2=O
IC50 (A549 [7]): > 100 µM
IC50 (HCT-116 [8]): > 100 µM
IC50 (MDA-MB-231 [9]): > 100 µM

O=c1c2ccccc2nc2n1-c1ccccc1/C2=N/N=c1/scc(-c2ccc(Br)cc2)n1-c1ccccc1
IC50 (MCF7): 31.6 µM
IC50 (A549 [6]): 64.9 µM
IC50 (HeLa): 55.5 µM

Cc1ccc2c(c1N1CCNCC1)C(=O)c1nc3ccccc3c(=O)n1-2
IC50 (A549 [3]): > 100 µM
IC50 (HCT-116 [4]): 67.2 µM
IC50 (MDA-MB-231 [5]): 69.8 µM

Cc1ccc2c(c1N1CCOCC1)C(=O)c1nc3ccccc3c(=O)n1-2
IC50 (A549 [3]): > 100 µM
IC50 (HCT-116 [4]): > 100 µM
IC50 (MDA-MB-231 [5]): 58.7 µM

Cc1ccc2c(c1N1CCN(CCO)CC1)C(=O)c1nc3ccccc3c(=O)n1-2
IC50 (A549 [3]): > 100 µM
IC50 (HCT-116 [4]): > 100 µM
IC50 (MDA-MB-231 [5]): > 100 µM

O=C1c2cc(F)ccc2-n2c1nc1cc(Cl)ccc1c2=O
IC50 [1]: > 100 µM
IC50 (A549 [2]): > 100 µM

O=c1c2ccccc2nc2n1-c1ccccc1/C2=N/N=c1/scc(-c2ccc(O)cc2)n1-c1ccccc1
IC50 (MCF7): 58.5 µM
IC50 (A549 [6]): 38.3 µM
IC50 (HeLa): 55.1 µM

O=C1C2C=CC=CC2=NC2/C(=N\Nc3nc(-c4ccccc4)cs3)c3ccccc3N12 (configuration not stated)
IC50 (MCF7): 40.5 µM
IC50 (A549 [6]): 52 µM
IC50 (HeLa): 46 µM

Cc1ccc2c(c1N1CCCCC1)C(=O)c1nc3ccccc3c(=O)n1-2
IC50 (A549 [3]): > 100 µM
IC50 (HCT-116 [4]): > 100 µM
IC50 (MDA-MB-231 [5]): > 100 µM

O=C1C2C=CC=CC2=NC2/C(=N\Nc3nc(-c4ccc([N+](=O)[O-])cc4)cs3)c3ccccc3N12 (configuration not stated)
IC50 (MCF7): 59.1 µM
IC50 (A549 [6]): 49.1 µM
IC50 (HeLa): 67 µM

O=C1c2c(ccc(F)c2N2CCN(CCO)CC2)-n2c1nc1ccccc1c2=O
IC50 (A549 [3]): 41.4 µM
IC50 (HCT-116 [4]): > 100 µM
IC50 (MDA-MB-231 [5]): > 100 µM
IC50 (A549 [7]): 41.4 µM
IC50 (HCT-116 [8]): > 100 µM
IC50 (MDA-MB-231 [9]): > 100 µM

O=C1c2c(ccc(F)c2Cl)-n2c1nc1ccc(F)c(Cl)c1c2=O
IC50 [1]: 68.3 µM
IC50 (A549 [2]): 0.51 µM

CCN(CC)c1cc2c(cc1Cl)C(=O)c1nc3ccccc3c(=O)n1-2
IC50 (A549 [7]): 1.48 µM
IC50 (HCT-116 [8]): 1.29 µM
IC50 (MDA-MB-231 [9]): 1.78 µM

O=c1c2ccccc2nc2n1-c1ccccc1/C2=N/N=c1/scc(-c2ccccc2)n1-c1ccccc1
IC50 (MCF7): 50.2 µM
IC50 (A549 [6]): 51.6 µM
IC50 (HeLa): 56.6 µM

O=C1c2cc(Cl)ccc2-n2c1nc1cc(Cl)ccc1c2=O
IC50 [1]: > 100 µM
IC50 (A549 [2]): > 100 µM

O=C1c2c(ccc(F)c2N2CCOCC2)-n2c1nc1ccccc1c2=O
IC50 (A549 [3]): > 100 µM
IC50 (HCT-116 [4]): > 100 µM
IC50 (MDA-MB-231 [5]): > 100 µM
IC50 (A549 [7]): > 100 µM
IC50 (HCT-116 [8]): > 100 µM
IC50 (MDA-MB-231 [9]): > 100 µM

O=C1c2c(ccc(Cl)c2N2CCOCC2)-n2c1nc1ccccc1c2=O
IC50 (A549 [3]): > 100 µM
IC50 (HCT-116 [4]): 10.7 µM
IC50 (MDA-MB-231 [5]): > 100 µM

O=c1c2ccccc2nc2n1-c1ccccc1/C2=N/N=c1/scc(-c2ccc(F)cc2)n1-c1ccccc1
IC50 (MCF7): 60.1 µM
IC50 (A549 [6]): 44.4 µM
IC50 (HeLa): 52 µM

CN1CCN(c2c(F)ccc3c2C(=O)c2nc4ccccc4c(=O)n2-3)CC1
IC50 (A549 [3]): > 100 µM
IC50 (HCT-116 [4]): > 100 µM
IC50 (MDA-MB-231 [5]): > 100 µM

O=C1c2c(ccc(Cl)c2N2CCCCC2)-n2c1nc1ccccc1c2=O
IC50 (A549 [3]): > 100 µM
IC50 (HCT-116 [4]): > 100 µM
IC50 (MDA-MB-231 [5]): > 100 µM

Cc1ccc2c(c1N(C)C)C(=O)c1nc3ccccc3c(=O)n1-2
IC50 (A549 [3]): 98 µM
IC50 (HCT-116 [4]): > 100 µM
IC50 (MDA-MB-231 [5]): 87.3 µM

O=C1c2c(ccc(Cl)c2Cl)-n2c1nc1ccc(F)c(Cl)c1c2=O
IC50 [1]: 67.2 µM
IC50 (A549 [2]): > 100 µM

O=C1c2cc(Cl)ccc2-n2c1nc1ccc(Cl)c(Cl)c1c2=O
IC50 [1]: > 100 µM
IC50 (A549 [2]): > 100 µM

O=C1c2c(ccc(F)c2N2CCNCC2)-n2c1nc1ccccc1c2=O
IC50 (A549 [3]): > 100 µM
IC50 (HCT-116 [4]): > 100 µM
IC50 (MDA-MB-231 [5]): 65.8 µM

Cc1ccc2c(c1N1CCN(C)CC1)C(=O)c1nc3ccccc3c(=O)n1-2
IC50 (A549 [3]): 52.6 µM
IC50 (HCT-116 [4]): > 100 µM
IC50 (MDA-MB-231 [5]): > 100 µM

CCN(CC)c1c(Cl)ccc2c1C(=O)c1nc3ccccc3c(=O)n1-2
IC50 (A549 [3]): 1.48 µM
IC50 (HCT-116 [4]): 1.29 µM
IC50 (MDA-MB-231 [5]): 1.78 µM

O=C1c2cc(F)ccc2-n2c1nc1ccc(F)c(Cl)c1c2=O
IC50 [1]: 89.7 µM
IC50 (A549 [2]): > 100 µM

O=C1c2c(ccc(Cl)c2N2CCNCC2)-n2c1nc1ccccc1c2=O
IC50 (A549 [3]): 34.5 µM
IC50 (HCT-116 [4]): > 100 µM
IC50 (MDA-MB-231 [5]): 31.6 µM

O=c1c2ccccc2nc2n1-c1ccccc1/C2=N/N=c1/scc(-c2ccc([N+](=O)[O-])cc2)n1-c1ccccc1
IC50 (MCF7): 43.1 µM
IC50 (A549 [6]): 52.8 µM
IC50 (HeLa): 67 µM

O=C1c2cc(Cl)ccc2-n2c1nc1ccc(F)c(Cl)c1c2=O
IC50 [1]: > 100 µM
IC50 (A549 [2]): > 100 µM

O=C1c2c(ccc(F)c2N2CCCCC2)-n2c1nc1ccccc1c2=O
IC50 (A549 [3]): > 100 µM
IC50 (HCT-116 [4]): 64.2 µM
IC50 (MDA-MB-231 [5]): > 100 µM
IC50 (A549 [7]): > 100 µM
IC50 (HCT-116 [8]): 64.2 µM
IC50 (MDA-MB-231 [9]): > 100 µM

CC[C@@]1(O)C(=O)OCc2c1cc1n(c2=O)Cc2cc3ccccc3nc2-1 [CAMPTOTHECIN]
IC50 (A549 [2]): 0.39 µM

From ChEMBL document CHEMBL5532682, “Recent advances of tryptanthrin and its derivatives as potential anticancer agents” (RSC Med Chem, 2024)
